Converted amounts (≈) assume the structure as drawn.
Experiments:
Mycoplasma bovis Donetta = experiment: Antimycoplasmal activity (MIC); format: cell-based; conditions: Mycoplasmopsis bovis, 120 h; Chanock medium, 20% horse serum; 37° C., 5 days, slightly aerobic; 0.005 ml of 10^5 CFU/ml
[1] = test system: Mycoplasma gallisepticum PG-31; experiment: Antimycoplasmal activity (MIC); format: cell-based; conditions: Mycoplasmoides gallisepticum, PG31, 120 h; Chanock medium, 20% horse serum; 37° C., 5 days, slightly aerobic; 0.005 ml of 10^5 CFU/ml
[2] = test system: Mycoplasma gallisepticum K-1; experiment: Antimycoplasmal activity (MIC); format: cell-based; conditions: Mycoplasmoides gallisepticum, K1, 120 h; Chanock medium, 20% horse serum; 37° C., 5 days, slightly aerobic; 0.005 ml of 10^5 CFU/ml
Solubility = format: physicochemical
[3] = test system: Pseudomonas aeruginosa N07; experiment: MIC, agar medium dilution method; format: cell-based; conditions: nutrient agar
Method: (§1) The minimum inhibitory concentration (MIC) of thiomarinol, given as μg/ml, against gram-positive and gram-negative bacteria was determined by the agar medium dilution method, using a nutrient agar medium (Product of Eiken Chemical Co., Ltd.).

Serratia marcescens 1184 = experiment: MIC, agar medium dilution method; format: cell-based; conditions: nutrient agar
Method: as §1

Enterobacter cloacae 963 = experiment: MIC, agar medium dilution method; format: cell-based; conditions: nutrient agar
Method: as §1

Proteus vulgaris 1420 = experiment: MIC, agar medium dilution method; format: cell-based; conditions: nutrient agar
Method: as §1

[4] = test system: Staphylococcus aureus 209P; experiment: MIC, agar medium dilution method; format: cell-based; conditions: nutrient agar
Method: as §1

Escherichia coli NHIJ = experiment: MIC, agar medium dilution method; format: cell-based; conditions: nutrient agar
Method: as §1

[5] = test system: Pseudomonas aeruginosa 1001; experiment: MIC, agar medium dilution method; format: cell-based; conditions: nutrient agar
Method: as §1

[6] = test system: Klebsiella pneumoniae 806; experiment: MIC, agar medium dilution method; format: cell-based; conditions: nutrient agar
Method: as §1

Morganella morganii 1510 = experiment: MIC, agar medium dilution method; format: cell-based; conditions: nutrient agar
Method: as §1

[7] = test system: Staphylococcus aureus 535 (MRSA); experiment: MIC, agar medium dilution method; format: cell-based; conditions: nutrient agar
Method: as §1

[8] = test system: Staphylococcus aureus 56R; experiment: MIC, agar medium dilution method; format: cell-based; conditions: nutrient agar
Method: as §1

[9] = test system: Klebsiella pneumoniae 846 (R); experiment: MIC, agar medium dilution method; format: cell-based; conditions: nutrient agar, (R) strain
Method: as §1

Salmonella enteritidis = experiment: MIC, agar medium dilution method; format: cell-based; conditions: Salmonella enterica, nutrient agar
Method: as §1

Escherichia coli 609 = experiment: MIC, agar medium dilution method; format: cell-based; conditions: nutrient agar
Method: as §1

[10] = test system: Enterococcus faecalis 681; experiment: MIC, agar medium dilution method; format: cell-based; conditions: nutrient agar
Method: as §1

[11] = test system: Mycoplasma hyosynoviae S-16; experiment: Antimycoplasmal activity (MIC); format: cell-based; conditions: S16, 120 h, Mucin PPLO agar medium, 15% horse serum, 37° C., 5 days, slightly aerobic, 0.005 ml of 10^5 CFU/ml
Method: (§2) Following the procedure as described below, the activity of thiomarinol was assayed against various species of mycoplasma.
M. hyosynoviae Mucin PPLO* agar medium (15%
horse serum supplemented)
(§3) 37° C., 5 days, slightly aerobic
(§4) (BBL gas pack method [cultivation
(§5) in disposable CO2 generator from
(§6) Becton Dickinson Microbiology
(§7) Systems, Cockeysville, MD 2103
*PPLO ( -- Pleuro -- Pneumonia- -- Like
PPLO Broth without CV (Difco)
Mucin bacteriological (Difco)
Agar Noble (Difco) 12 g
25% Fresh yeast extract 50 ml

[12] = test system: Mycoplasma gallisepticum S-6; experiment: Antimycoplasmal activity (MIC); format: cell-based; conditions: Mycoplasmoides gallisepticum, S6, 120 h; Chanock medium, 20% horse serum; 37° C., 5 days, slightly aerobic; 0.005 ml of 10^5 CFU/ml
[13] = test system: Mycoplasma synoviae WVU1853; experiment: Antimycoplasmal activity (MIC); format: cell-based; conditions: Mycoplasmopsis synoviae, WVU1853, 120 h; Frey medium, 12% swine serum; 37° C., 5 days, slightly aerobic; 0.005 ml of 10^5 CFU/ml
Method: as §2
M. synoviae Frey medium [prepared as de-
scribed in Am. J. Vet. Res., --29,
as §3, §4, §5, §6, §7

`C/C(=C\C(=O)OCCCCCCCC(=O)Nc1c2sscc-2[nH]c1=O)C(O)C1OCC(C/C=C/C(C)C(C)O)C(O)C1O` (single isomer, unassigned) [thiomarinol] gave an MIC (Mycoplasma bovis Donetta) of 0.0125 µg/mL (≈ 0.0195 µM), an MIC [1] of 0.05 µg/mL (≈ 0.078 µM) and an MIC [2] of 0.05 µg/mL (≈ 0.078 µM). The Solubility (Solubility; alcohols (methanol, ethanol, propanol, butanol), dimethyl sulfoxide, dimethylformamide, chloroform, ethyl acetate, acetone, ethyl ether) was “Soluble”, the Solubility (Solubility; hexane) was “insoluble” and the Solubility (Solubility; water) was “insoluble”. It also gave an MIC [3] of 0.4 µg/mL (≈ 0.624 µM), an MIC (Serratia marcescens 1184) of 3.1 µg/mL (≈ 4.84 µM) and an MIC (Enterobacter cloacae 963) of 1.5 µg/mL (≈ 2.34 µM). It also gave an MIC (Proteus vulgaris 1420) of 0.05 µg/mL (≈ 0.078 µM), an MIC [4] of at most 0.01 µg/mL and an MIC (Escherichia coli NHIJ) of 0.8 µg/mL (≈ 1.25 µM). The MIC [5] was 0.2 µg/mL (≈ 0.312 µM), the MIC [6] was 0.8 µg/mL (≈ 1.25 µM) and the MIC (Morganella morganii 1510) was 6.2 µg/mL (≈ 9.68 µM). It also gave an MIC [7] of at most 0.01 µg/mL, an MIC [8] of at most 0.01 µg/mL and an MIC [9] of 0.2 µg/mL (≈ 0.312 µM). For the same compound, the MIC (Salmonella enteritidis) was 0.4 µg/mL (≈ 0.624 µM), the MIC (Escherichia coli 609) was 0.8 µg/mL (≈ 1.25 µM) and the MIC [10] was 0.02 µg/mL (≈ 0.0312 µM). It also gave an MIC [11] of 0.025 µg/mL (≈ 0.039 µM), an MIC [12] of 0.1 µg/mL (≈ 0.156 µM) and an MIC [13] of under 0.006 µg/mL.

— patent publication US5292892A, “Anti-bacterial compound and pharmaceutical compositions thereof” (Sankyo Company, Limited, priority 1991, dated 1994)
